# Laboratory results from ChEMBL document CHEMBL1127875 (Bioorg Med Chem Lett, 1994).
# Organism: Oryctolagus cuniculus
# Test: pA2 value determined by their ability to block AngII induced contractile responses in rabbit aorta strips
# Type: functional
# Conditions: read-out: pA2 (converted)
row,SMILES,Kb
1,CCCCCCC(C(=O)O)n1cnc(NC(=O)c2ccccc2C2N=NN=N2)c1 (stereo unspecified),100 nM
2,CCCCCCC(C(=O)O)n1cnc(NC(=O)c2cccc(O)c2C(=O)O)c1 (stereo unspecified),100 nM
3,CCCCCCC(C(=O)O)n1cnc(NC(=O)c2ccccc2C(=O)O)c1 (stereo unspecified),100 nM

# Target: T1, Type-1 angiotensin II receptor (Oryctolagus cuniculus) (UniProt P34976)
# T1 sequence (whole entry): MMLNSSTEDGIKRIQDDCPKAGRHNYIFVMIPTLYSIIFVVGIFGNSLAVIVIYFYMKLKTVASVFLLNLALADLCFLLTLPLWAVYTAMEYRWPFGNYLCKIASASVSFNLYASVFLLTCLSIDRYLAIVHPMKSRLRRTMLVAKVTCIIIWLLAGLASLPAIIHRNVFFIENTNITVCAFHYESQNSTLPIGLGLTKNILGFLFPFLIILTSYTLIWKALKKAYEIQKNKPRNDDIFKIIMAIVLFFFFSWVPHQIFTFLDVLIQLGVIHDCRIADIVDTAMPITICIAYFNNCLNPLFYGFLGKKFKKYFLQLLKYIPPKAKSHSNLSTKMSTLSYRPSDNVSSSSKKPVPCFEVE
# Test: In vitro antagonism of Angiotensin II receptor, type 1 in isolated rabbit thoracic aorta
# Type: functional, tissue-based
# Conditions: not given
row,Kb,SMILES
1,489 nM,CCCCCC[C@@H](C(=O)N1C[C@H](Oc2ccc(CC(=O)O)cc2)C[C@@H]1C(=O)O)n1cnc(NC(=O)c2ccccc2S(=O)(=O)O)c1
2,0.12 nM,CCCCCC[C@H](C(=O)N1C[C@@H](Oc2ccc(CC(=O)O)cc2)C[C@H]1C(=O)O)n1cnc(NC(=O)c2ccccc2S(=O)(=O)O)c1
3,191 nM,CCCCCC[C@H](C(=O)N1C[C@H](Oc2ccc(CC(=O)O)cc2)C[C@@H]1C(=O)O)n1cnc(NC(=O)c2ccccc2S(=O)(=O)O)c1
4,4.5 nM,CCCCCC[C@@H](C(=O)N1C[C@@H](Oc2ccc(CC(=O)O)cc2)C[C@H]1C(=O)O)n1cnc(NC(=O)c2ccccc2S(=O)(=O)O)c1
5,555 nM,CCCCCC[C@@H](C(=O)N1C[C@H](Oc2ccc(CC(=O)O)cc2)C[C@H]1C(=O)O)n1cnc(NC(=O)c2ccccc2S(=O)(=O)O)c1
6,503 nM,CCCCCC[C@H](C(=O)N1C[C@H](Oc2ccc(CC(=O)O)cc2)C[C@H]1C(=O)O)n1cnc(NC(=O)c2ccccc2S(=O)(=O)O)c1
7,761 nM,CCCCCC[C@@H](C(=O)N1C[C@@H](Oc2ccc(CC(=O)O)cc2)C[C@@H]1C(=O)O)n1cnc(NC(=O)c2ccccc2S(=O)(=O)O)c1
8,156 nM,CCCCCC[C@H](C(=O)N1C[C@@H](Oc2ccc(CC(=O)O)cc2)C[C@@H]1C(=O)O)n1cnc(NC(=O)c2ccccc2S(=O)(=O)O)c1
